Measured values taken from ChEMBL document CHEMBL3108764, “Tankyrase inhibitors: potential treatment of hyperproliferative diseases” (ACS Med Chem Lett, 2014).

Legend:
[1] = biological target: T1, Poly [ADP-ribose] polymerase tankyrase-1 (Homo sapiens, UniProt O95271); experiment: Inhibition of human TNKS1 incubated for 30 mins prior to substrate addition measured after 2 hrs by HTRF method
T1 sequence (O95271 whole entry): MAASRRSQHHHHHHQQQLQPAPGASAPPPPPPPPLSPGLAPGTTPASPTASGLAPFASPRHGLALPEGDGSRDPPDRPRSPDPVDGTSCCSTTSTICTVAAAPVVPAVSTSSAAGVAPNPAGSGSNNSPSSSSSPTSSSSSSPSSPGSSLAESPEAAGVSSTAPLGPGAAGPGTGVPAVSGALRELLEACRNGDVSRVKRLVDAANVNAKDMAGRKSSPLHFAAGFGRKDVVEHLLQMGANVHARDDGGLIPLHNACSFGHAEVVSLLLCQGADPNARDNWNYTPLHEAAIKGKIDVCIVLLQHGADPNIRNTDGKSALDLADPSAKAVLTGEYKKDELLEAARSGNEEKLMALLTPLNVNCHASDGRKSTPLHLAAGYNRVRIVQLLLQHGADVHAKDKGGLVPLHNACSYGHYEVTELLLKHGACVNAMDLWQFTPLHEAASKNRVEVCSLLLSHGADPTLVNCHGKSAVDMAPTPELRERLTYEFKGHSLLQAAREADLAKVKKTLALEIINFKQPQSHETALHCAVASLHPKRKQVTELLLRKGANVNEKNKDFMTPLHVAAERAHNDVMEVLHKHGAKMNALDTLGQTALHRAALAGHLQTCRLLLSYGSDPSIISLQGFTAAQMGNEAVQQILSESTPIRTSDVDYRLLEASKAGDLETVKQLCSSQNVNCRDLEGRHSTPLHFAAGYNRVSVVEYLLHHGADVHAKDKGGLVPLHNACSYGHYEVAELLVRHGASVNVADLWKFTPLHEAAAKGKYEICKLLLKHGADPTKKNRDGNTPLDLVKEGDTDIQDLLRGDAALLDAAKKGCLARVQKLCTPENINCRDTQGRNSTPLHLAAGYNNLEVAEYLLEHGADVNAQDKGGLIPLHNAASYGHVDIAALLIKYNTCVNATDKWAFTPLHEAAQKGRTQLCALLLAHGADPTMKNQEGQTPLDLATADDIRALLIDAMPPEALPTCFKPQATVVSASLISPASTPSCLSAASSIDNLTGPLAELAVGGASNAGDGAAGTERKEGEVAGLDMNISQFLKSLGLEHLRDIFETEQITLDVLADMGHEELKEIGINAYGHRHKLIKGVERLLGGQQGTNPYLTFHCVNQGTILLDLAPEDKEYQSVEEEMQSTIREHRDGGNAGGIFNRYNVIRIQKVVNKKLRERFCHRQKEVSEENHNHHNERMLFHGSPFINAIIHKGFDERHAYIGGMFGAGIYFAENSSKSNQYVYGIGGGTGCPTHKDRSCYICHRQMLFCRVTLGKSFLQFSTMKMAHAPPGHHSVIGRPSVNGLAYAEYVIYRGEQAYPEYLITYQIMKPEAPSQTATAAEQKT

[2] = biological target: T1, Poly [ADP-ribose] polymerase tankyrase-1; experiment: Inhibition of human TNKS1 after 1 to 2 hrs by fluorescence polarization method

IC50 [1] [µM]	IC50 [2] [µM]	Compound
0.0316	0.00794	N#Cc1c(Cn2c(=O)n(C[C@H]3CC[C@H](C(=O)O)CC3)c(=O)c3ccccc32)cccc1C(F)(F)F
0.0501	0.00631	Cc1c(F)ccc2c1c(=O)n(C[C@H]1CC[C@H](C(=O)O)CC1)c(=O)n2Cc1cccc(C(F)(F)F)c1C#N
0.316	–	Cc1cccc2c1c(=O)n(C[C@H]1CC[C@@H](C(=O)O)CC1)c(=O)n2Cc1cccc(C(F)(F)F)c1C#N
